Measurements from US7214672B2, “Preventives/remedies for inflammatory airway diseases” (Nippon Shinyaku Co., Ltd., priority 2000, dated 2007).

System: Rat (male, female)
Assay: Single dose toxicity study
Type: in vivo
Details: rats, administered only once
Experimental: Compound 1 or 2 of the present invention was administered to rats only once, and the lethal dose thereof was determined.

SMILES	toxicity (single dose)
C[C@@H]1C[C@H]2[C@@H]3CCC4=CC(=O)C=C[C@]4(C)[C@@]3(F)[C@@H](O)C[C@]2(C)[C@@]1(OC(=O)C1CC1)C(=O)CO [Compound 1, 9-fluoro-11β,17,21-trihydroxy-16α-methyl-1,4-pregnadiene-3,20-dione 17-cyclopropanecarboxylate]	low toxicity
C[C@@H]1C[C@H]2[C@@H]3CCC4=CC(=O)C=C[C@]4(C)[C@@]3(F)[C@@H](O)C[C@]2(C)[C@@]1(OC(=O)C1CC1)C(=O)COC(=O)C1CCCCC1 [Compound 2, 9-fluoro-11β,17,21-trihydroxy-16α-methyl-1,4-pregnadiene-3,20-dione 21-cyclohexanecarboxylate 17-cyclopropanecarboxylate]	low toxicity
